# Columns and labels:
# [1] = Free radical scavenger, SOD mimetic activity (xanthine/xanthine oxidase/NBT); type: biochemical; settings: 6.1 μM
# Protocol: SS304L or vehicle was incubated with 0.12 mM xanthine, 6 mU xanthine oxidase, 27 μM nitroblue tetrazolium (NBT), 0.11 mM EDTA, 0.005% bovine serum albumin and Na2CO3 at pH 10.5 at 25° C. for 20 minutes. Conversion of xanthine to uric acid +O^−+NBT to formazan was then determined by measurement of absorbance at 595 nm and percent inhibition by superoxide dismutase or SS304L was calculated.
# [2] = test system: Human dermal fibroblasts (HFB); assay: HFB proliferation (MTT); type: cell-based; settings: 72 hours; for Mean OD: MTT A570
# Protocol: Human dermal fibroblasts (HFB) were cultured from foreskin with consent by cell emigration from ˜1 mm^3 skin pieces in DMEM+1 mM sodium pyruvate+2 mM glutamine+100 U/ml penicillin+100 ug/ml streptomycin+10% fetal calf serum (FCS) (C-DMEM) under humidified atmosphere containing 5% CO2 at 37° C.
# 1×10^4 HFB were seeded in a 96 multi-well culture dish. 48 hours later, the cells were treated with various concentrations of SS304L in C-DMEM under humidified atmosphere containing 5% CO2 at 37° C. The cells were exposed to drugs for 72 hours, and then treated with 0.5 mg/ml MTT for 4 hours at 37° C. The reduced formazan was dissolved in isopropanol containing 0.04 N HCl, and measured at A570 nm by an ELISA reader (Molecular Device).
# Human recombinant COX II = molecular target: T1, Human recombinant COX II (Homo sapiens, UniProt P35354); assay: Inhibition of cyclooxygenase II; type: biochemical
# T1 construct: purchased Sigma C-0858; host or cells: Sf21 insect cells
# T1 sequence (P35354 18-604): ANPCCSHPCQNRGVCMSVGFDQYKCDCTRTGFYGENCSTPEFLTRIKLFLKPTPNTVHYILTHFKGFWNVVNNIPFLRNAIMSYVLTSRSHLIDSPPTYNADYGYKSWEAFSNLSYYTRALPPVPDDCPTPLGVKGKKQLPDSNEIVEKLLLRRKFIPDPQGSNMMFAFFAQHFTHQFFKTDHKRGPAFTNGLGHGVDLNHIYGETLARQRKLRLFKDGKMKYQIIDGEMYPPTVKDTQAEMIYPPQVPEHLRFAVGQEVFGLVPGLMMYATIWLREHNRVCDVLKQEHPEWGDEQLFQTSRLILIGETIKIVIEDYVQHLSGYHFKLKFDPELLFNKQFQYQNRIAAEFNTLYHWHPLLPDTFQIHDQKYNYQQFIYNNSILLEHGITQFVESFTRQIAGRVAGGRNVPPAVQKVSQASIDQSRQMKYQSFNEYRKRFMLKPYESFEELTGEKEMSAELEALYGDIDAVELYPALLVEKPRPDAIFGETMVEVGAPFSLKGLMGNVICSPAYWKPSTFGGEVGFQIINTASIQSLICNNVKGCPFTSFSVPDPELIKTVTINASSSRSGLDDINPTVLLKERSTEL
# Protocol: SS304L or vehicle was […] with 0.11 U enzyme, 1 mM reduced glutathione, 500 μM phenol and 1 μM hematin in Tris-HCl, pH 7.7 at 37° C. for 15 minutes. 0.3 μM arachidonic acid as substrate was added and the reaction was terminated by addition of 1 N HCl after 5 minutes. The converted PGE2 was measured by an Amersham EIA kit following centrifugation. SS304L was assayed at 10 and 100 μg/ml.
# [3] = test system: full thickness excision wounds; assay: Full thickness excision wound healing in mice; type: in vivo, Aging male ICR mice
# Protocol: Aging male ICR mice at body weights of 40 to 50 grams (Age: 14 to 16 weeks) were lightly anesthetized with ether. 0.7 mm in diameter full thickness excisions were conducted at the dorsal back skin after shaving and 70% ethanol sterilization. Immediately after excision, the wounds were covered with either vehicle (sterile 1% carboxymethyl cellulose, 25 μl) at first wound site of all mice, and with 1% arginine, 0.1% S[…], or 1% S[…] at the second wound site. Each group contained 4 to 6 mice. The drugs were applied on the day of photography (Day 0, 1, 2, 3, 4, 7, 10, 14, 18). The areas of the wounds and the rates and qualities of healing were compared at each time point. Arginine was used as comparison due to the similarity of part of its action mechanisms to S[…].
compound,measurement,setting,value
O=C(O[C@@H]1Cc2c(O)cc(O)cc2O[C@@H]1c1ccc(O)c(O)c1)c1cc(O)c(O)c(O)c1 [(−)-Epicatechin gallate],Inhibition (%),[1],50%
C[C@]12CC[C@@H]3c4ccc(O)cc4CC[C@H]3[C@@H]1CC[C@@H]2O [Estradiol],Inc. (%.),[2]; Estradiol 1 nM,−4%
same,Mean OD,[2]; Estradiol 1 nM,0.131
same,Inc. (%.),[2]; Estradiol 3 nM,4%
same,Mean OD,[2]; Estradiol 3 nM,0.139
same,Inc. (%.),[2]; Estradiol 10 nM,2%
same,Mean OD,[2]; Estradiol 10 nM,0.137
same,Inc. (%.),[2]; Estradiol 30 nM,−3%
same,Mean OD,[2]; Estradiol 30 nM,0.132
same,Inc. (%.),[2]; Estradiol 100 nM,−4%
same,Mean OD,[2]; Estradiol 100 nM,0.131
CS(=O)(=O)Nc1ccc([N+](=O)[O-])cc1Oc1ccccc1 [Nimesulide],inhibition at 1 µM,Human recombinant COX II,50%
N=C(N)NCCC[C@H](N)C(=O)O [arginine],Inflammation of wounds,"[3]; day 3 post wounding, topical",no apparent sign of inflammation
same,Re-epithelization/granulation process,"[3]; day 7, topical",significantly facilitated
same,Unhealed wound areas compared to the areas of the vehicle treated wounds (fraction),"[3]; day 10, applied at 1%",⅓ to ½
same,Healing of wounds,"[3]; day 14, topical",completely healed
Vitamin A,Inc. (%),[2]; Vitamin A 0.1 uM,−7%
same,Mean OD,[2]; Vitamin A 0.1 uM,0.128
same,Inc. (%),[2]; Vitamin A 0.3 uM,−4%
same,Mean OD,[2]; Vitamin A 0.3 uM,0.131
same,Inc. (%),[2]; Vitamin A 1 uM,−4%
same,Mean OD,[2]; Vitamin A 1 uM,0.131
same,Inc. (%),[2]; Vitamin A 3 uM,−12%
same,Mean OD,[2]; Vitamin A 3 uM,0.124
same,Inc. (%),[2]; Vitamin A 10 uM,−6%
same,Mean OD,[2]; Vitamin A 10 uM,0.129
Vitamin E,Inc. (%.),[2]; Vitamin E 3 uM,0%
same,Mean OD,[2]; Vitamin E 3 uM,0.135
same,Inc. (%.),[2]; Vitamin E 10 uM,9%
same,Mean OD,[2]; Vitamin E 10 uM,0.144
same,Inc. (%.),[2]; Vitamin E 30 uM,−4%
same,Mean OD,[2]; Vitamin E 30 uM,0.131
same,Inc. (%.),[2]; Vitamin E 100 uM,−9%
same,Mean OD,[2]; Vitamin E 100 uM,0.126
same,Inc. (%.),[2]; Vitamin E 300 uM,−16%
same,Mean OD,[2]; Vitamin E 300 uM,0.120

# — patent US20090186100A1, “MEDICAMENT FOR ANTI-AGING SKIN CARE AND WOUND HEALING AND USE THEREOF” (SAGITTARIUS LIFE SCIENCE CORP., priority 2008, published 2009)
